Source: patent publication US20240398843A1, “GLYCYRRHIZIN-BRANCHED POLYETHYLENE GLYCOL CONJUGATE FOR TREATING CANCER” (IUCF-HYU (INDUSTRY-UNIVERSITY COOPERATION FOUNDATION …, priority 2021, published 2024)

What was measured:
[1] = In vivo distribution (organ fluorescence, FOBI); settings: FITC-labelled, tail vein, C57BL mouse
Protocol: Each of GL-FITC and bPEG-GL-FITC was dissolved in 1.5 mL of PBS at a concentration of 125 μg/mL based on GL. 100 μL each of the GL-FITC and bPEG-GL-FITC solutions was injected into the tail vein of a C57BL mouse. When a preset time (10 min, 30 min, 3 hr, 6 hr, and 24 hr) passed, the mice were sacrificed, organs were removed, and then fluorescence images were confirmed using FOBI.

HepG2 cells [2] = experiment: Cell cycle arrest assay (PI, FACS); format: cell-based; settings: 24 hours
Protocol: HepG2 cells were seeded in a 6-well plate at 4×10^5 cells/well and cultured (3 wells for each treated group). The cells were classified into a control (con; untreated group), GL-treated groups (250 and 500 μg/mL), bPEG-GL-treated groups (GL equi 250 and 500 μg/mL), and a bPEG (GL equi 500 μg/mL)-treated group, treated with corresponding materials, and cultured for 24 hours. After the cells were recovered and counted, 1×10^6 cells were obtained for each experimental group. The cells were washed with PBS and fixed with 70% ethanol (cell membrane disruption). The cells were treated with 50 μL of ribonuclease A (100 μg/mL) and 200 μL of propidium iodide (PI; 50 μg/mL). The cells were washed and suspended in 500 μL of PBS, and then FACS was performed.

[3] = In vivo pharmacokinetics (plasma, HPLC); settings: intravenous, mouse, tail vein, 5 mg/kg GL
Protocol: 5 mg/kg of GL or 18 mg/kg of bPEG-GL (a GL equivalent amount of the GL-administered group) was injected into the tail vein of a mouse. The mouse was sacrificed at a designated time point after injection and blood was collected through cardiac puncture. The blood collection times were as follows: 1, 3, 5, 10, 30, 60, 120, 150, 360, 720, 1080, and 1440 min (n=4 at each time). The collected blood was centrifuged at 3000 rpm and 4° C. for 20 minutes. Only the plasma, which is the supernatant, was recovered, and 50 μL of the plasma and 100 μL of methyl alcohol (HPLC grade) were mixed and vortexed for 10 minutes. Afterward, the resulting product was centrifuged at 10000 g for 10 minutes. 100 μL of the supernatant was mixed with 900 μL of a mobile phase, and the resulting mixture was filtered using a 0.45 μm syringe filter.
The mobile phase consisted of methanol, acetonitrile, water, and acetic acid in a ratio of 55:23.7:19.2:0.68. The standard curve required for HPLC analysis was prepared as follows: each of 1 mg of GL and 1.8 mg of bPEG-GL was dissolved in 1 mL of the mouse serum. […] HPLC was performed on the blood samples and various concentrations of the GL/serum solutions using a C8 reverse column: flow rate: 1 mL/min; column temperature: 35° C.; UV absorbance: 251 nm; and sample injection amount: 20 μL.

red blood cells = experiment: In vitro blood hemolysis; settings: 0.2 to 1 mg/mL, 37° C., 1 hour
Protocol: 1 to 2 mL of blood was put into a 2 mL tube, filled with PBS, and centrifuged at 3,000 rpm for 2 minutes. The supernatant was removed, the vial was filled again with PBS, and centrifuged, and this process was repeated 2 to 3 times. 20 μL of a red blood pellet was dispensed into a 1.5 mL tube. DW, for example, 80% DW/PBS, 60% DW/PBS, 40% DW/PBS, 20% DW/PBS, or PBS was added to a control without separate material treatment, and the volumes was adjusted to 1.5 mL. In the experimental group, 1 mL of a bPEG-GL (3.6 mg/mL, 2.88 mg/mL, 2.16 mg/mL, 1.44 mg/mL, 0.72 mg/mL; GL equivalent concentration) solution was added to each tube.
The tubes were left in a 37° C. water bath for 1 hour and then centrifuged at 800 rpm for 5 minutes.

HepG2 cells [4] = experiment: Apoptosis assay (annexin V/PI, FACS); format: cell-based; settings: 24 hours
Protocol: HepG2 cells were seeded in a 60 mm well plate at 2×10^5 cells/well and cultured (3 wells for each treatment group). The cells were classified as follows, treated with corresponding materials, and cultured for 24 hours: Control (con; untreated group), GL-treated groups (250, 500, and 1,000 μg/mL), bPEG-GL-treated groups (900, 1,800, and 3,600 μg/mL; GL equivalent concentrations of 250, 500, and 1,000 μg/mL), and bPEG-treated groups (1,300 and 2,600 μg/mL; bPEG-GL equivalent concentrations of 1,800 and 3,600 μg/mL).
After the culture, the medium was aspirated to remove the treated material, and the cells were washed twice with a cell-staining buffer. After the cells were recovered and counted, 5×10^5 cells were obtained for each experimental group. The cell culture solution was centrifuged to remove the supernatant, and then the cells were suspended in 100 μL of annexin V-binding buffer. The cell suspension was transferred to an FACS tube, and 5 μL of annexin V and 10 μL of PI solution were added. Subsequently, the FACS tube was left in a dark room at room temperature for 15 minutes. 400 μL of PBS was added to each FACS tube and analyzed by FACS in appropriate settings.

[5] = Dynamic light scattering (DLS) particle size, incl. shielding effect check in 10% FBS DW; format: physicochemical; settings: for DLS size, first listed population / DLS size, second listed population / proportion of first listed population / proportion of second listed population: 10% FBS DW
Text: When bPEG was conjugated, a stabilized nano size of approximately 300 nm was observed (FIG. 6).

HepG2 cells [6] = experiment: Wound healing assay; format: cell-based; settings: HepG2, 500 μg/mL GL or GL equivalent, 24-hour culture
Protocol: HepG2 cells were seeded in a 6-well plate at 3×10^5 cells/well and cultured until 100% confluence. When the well was filled with cells, a wound was made by drawing a line in the center of the well using a 200 μL micropipette tip. The cells were washed with PBS, and treated with each of 500 μg/mL of GL, 500 μg/mL of bPEG-GL, which is a GL equivalent concentration, and a bPEG solution at the same amount of bPEG that dissolved in 500 μg/mL of bPEG-GL. After 24-hour culture, the width of the wound was confirmed. […] The cell migration rate was calculated according to Equation 1.
Rate of cell migration(RM)=(Wi−Wf)/t [Equation 1] • (Wi=initial wound width, Wf=final wound width, t=duration of migration)

Structure (SMILES): CC1(C)[C@@H](O[C@H]2O[C@H](C(=O)O)[C@@H](O)[C@H](O)[C@H]2O[C@@H]2O[C@H](C(=O)O)[C@@H](O)[C@H](O)[C@H]2O)CC[C@]2(C)[C@H]3C(=O)C=C4[C@@H]5C[C@@](C)(C(=O)O)CC[C@]5(C)CC[C@@]4(C)[C@]3(C)CC[C@@H]12 [GL, Glycyrrhizin]
- organ fluorescence ([1]; 10 minutes after injection): fluorescence was visible in the liver and kidney
- organ fluorescence ([1]; later time points up to 24 hr): no fluorescence was observed in the corresponding organs at later time points
- cell cycle phase compared to control (HepG2 cells [2]; HepG2, 250 and 500 μg/mL (GL equivalent)): cell cycles remained in the G0/G1 phase compared to the control
- concentration dependence of cell cycle arrest (HepG2 cells [2]; HepG2, 500 vs 250 μg/mL): higher cell cycle arrest effects at 500 μg/mL, compared to that at 250 μg/mL
- half-life [3]: ~4 min
- toxicity to blood cells (hemolysis) (red blood cells): did not exhibit toxicity to blood cells
- proportion of apoptotic cells (HepG2 cells [4]; HepG2, GL equivalent concentration of 500 μg/mL): 9.63%
- proportion of apoptotic cells (HepG2 cells [4]; HepG2, GL equivalent concentration of 1 mg/mL): 10.86%
- size by dynamic light scattering particle size analyzer [5]: 50 nm
- DLS size, first listed population ([5]; 30 min): 159.7 nm
- DLS size, second listed population ([5]; 30 min): 10.38 nm
- proportion of first listed population ([5]; 30 min): 75.50%
- proportion of second listed population ([5]; 30 min): 24.15%
- DLS size, first listed population ([5]; 1 h): 54.5 nm
- DLS size, second listed population ([5]; 1 h): 295.03 nm
- proportion of first listed population ([5]; 1 h): 47.83%
- proportion of second listed population ([5]; 1 h): 31.06%
- size of newly observed particles ([5]; DW with 10% FBS, after 1 hour): approximately 300 nm
- width of wound / cell migration (HepG2 cells [6]): inhibitory effect on cell migration
